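Where inhibition never reached the appropriate level, the endpoint shown equals the highest concentration tested. Otherwise, values were interpolated linearly from a five-concentration, 48-hour dose response in 96-well plates. The concentration for 50% growth inhibition is given as GI50.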 The source made the active and inactive calls. Cut-off read from the data, not from the text of the source: active = GI50 up to about 1.1 µM and inactive = higher.
Key:
Assay in all cases: inhibition of tumour cell growth, NCI panel, 48 h
KM-20L2 = system: KM-20L2
XF498 = system: XF498
DLD-1 = system: DLD-1
LXFL 529 = system: LXFL 529
RXF 631 = system: RXF 631
HOP-18 = system: HOP-18
SNB-78 = system: SNB-78
DMS-273 = system: DMS-273
DMS-114 = system: DMS-114

Row | Compound | GI50 (KM-20L2) | GI50 (XF498) | GI50 (DLD-1) | GI50 (LXFL 529) | GI50 (RXF 631) | GI50 (HOP-18) | GI50 (SNB-78) | GI50 (DMS-273) | GI50 (DMS-114)
1 | CC1(C)CC(Nc2ccc(Nc3ccccc3)cc2)CC(C)(C)N1 | 26.1 µM (inactive) | 22.5 µM (inactive) | 70.5 µM (inactive) | 25.1 µM (inactive) | 18.6 µM (inactive) | > 100 µM (inactive) | 66.2 µM (inactive) | 41.7 µM (inactive) | 21.2 µM (inactive)
2 | CC(O[Si](C)(C)C)C1C=CC(C)n2c(=O)n(-c3ccccc3)c(=O)n21 (centres undefined) | – | – | > 100 µM (inactive) | – | – | > 100 µM (inactive) | > 100 µM (inactive) | – | > 100 µM (inactive)
3 | COC12OCCN(C)C1=CC(=O)C1(C)N=NCC12 (centres undefined) | – | – | > 100 µM (inactive) | > 100 µM (inactive) | – | > 100 µM (inactive) | > 100 µM (inactive) | > 100 µM (inactive) | > 100 µM (inactive)
4 | Cc1ccc(NC(=O)C2C(=O)N(c3ccc(C)c(C)c3)C(=O)/C2=N/O)cc1C (centres undefined) | > 100 µM (inactive) | > 100 µM (inactive) | > 100 µM (inactive) | > 100 µM (inactive) | > 100 µM (inactive) | > 100 µM (inactive) | > 100 µM (inactive) | > 100 µM (inactive) | > 100 µM (inactive)
5 | COC1(OC)C2(Cl)C(Cl)=C(Cl)C1(Cl)C1C2C2CC1(C(=O)O)c1ccccc12 (centres undefined) | 24.2 µM (inactive) | – | 17.8 µM (inactive) | 14.6 µM (inactive) | 22.4 µM (inactive) | 41.2 µM (inactive) | – | 19 µM (inactive) | 17.5 µM (inactive)
6 | C=C1c2[nH]c3c([N+](=O)[O-])c(OC)ccc3c2CCN1C(C)=O | > 100 µM (inactive) | – | 22.1 µM (inactive) | > 100 µM (inactive) | – | – | > 100 µM (inactive) | > 100 µM (inactive) | > 100 µM (inactive)
7 | O=C1Cc2c([nH]c3ccccc23)-c2ccccc2N1 [PAULLONE] | 21.4 µM (inactive) | 31.6 µM (inactive) | 33.3 µM (inactive) | 19.1 µM (inactive) | – | > 100 µM (inactive) | > 100 µM (inactive) | 31.1 µM (inactive) | –
8 | O=C(Cc1ccccc1)NN1C(=O)C(Cl)C1c1cccc([N+](=O)[O-])c1 (centres undefined) | > 83.4 µM (inactive) | 31.2 µM (inactive) | 37.9 µM (inactive) | 14.2 µM (inactive) | – | 31.3 µM (inactive) | > 71.8 µM (inactive) | 36.5 µM (inactive) | 28.5 µM (inactive)
9 | Cc1cc2c(=O)cc(-c3cccs3)oc2c(C(=O)O)c1C | > 100 µM (inactive) | – | > 100 µM (inactive) | 49.4 µM (inactive) | – | – | – | > 100 µM (inactive) | –
10 | COc1ccc(C2=NN(C(=O)COc3ccc(Cl)cc3)C(O)(c3ccc(Cl)cc3)C2)cc1 (centres undefined) | > 100 µM (inactive) | > 100 µM (inactive) | > 100 µM (inactive) | > 100 µM (inactive) | > 100 µM (inactive) | – | 66.5 µM (inactive) | > 100 µM (inactive) | –
11 | CCOC(=O)C(C)(c1c(C)[nH]c2ccccc12)c1c(C)[nH]c2ccccc12 | 16.4 µM (inactive) | 21.8 µM (inactive) | 23.7 µM (inactive) | 51.4 µM (inactive) | – | – | 17.5 µM (inactive) | 14.1 µM (inactive) | 15.7 µM (inactive)
12 | CC(C)(C)C(=O)CC(=O)C(C)(C)C.CC(C)(C)C(=O)CC(=O)C(C)(C)C.[SiH4] | 1.62 µM (inactive) | 0.519 µM (active) | 0.436 µM (active) | 1.56 µM (inactive) | – | 2.36 µM (inactive) | – | 0.446 µM (active) | 0.566 µM (active)
13 | COc1cc(Nc2nc3ccc(C(F)(F)F)cc3nc2-c2ccccc2)cc(OC)c1OC | 5.85 µM (inactive) | – | 6.73 µM (inactive) | 23.1 µM (inactive) | – | < 0.01 µM (active) | > 100 µM (inactive) | 12 µM (inactive) | –
14 | CCCC12Cc3c(OC)ccc(OC)c3CC(Cc3c(OC)ccc(OC)c31)C2=O (centres undefined) | – | – | > 100 µM (inactive) | 10.2 µM (inactive) | – | – | > 100 µM (inactive) | > 100 µM (inactive) | 34.8 µM (inactive)
15 | Cc1ccc(N(C(=O)CC(=O)N2N=C(c3ccccc3)C(/N=N/c3ccc([N+](=O)[O-])cc3)C2=O)C(=O)c2ccc(Cl)cc2)cc1 (centres undefined) | 23.3 µM (inactive) | 21.8 µM (inactive) | 21.2 µM (inactive) | 15.5 µM (inactive) | – | 27.4 µM (inactive) | 6.95 µM (inactive) | 5.94 µM (inactive) | 20 µM (inactive)
16 | N=C(N)NCCCC(Nc1c2ccccc2nc2ccccc12)C(=O)O (centres undefined) | > 100 µM (inactive) | – | > 100 µM (inactive) | > 100 µM (inactive) | 75.3 µM (inactive) | – | – | > 100 µM (inactive) | –
17 | CCSC1(SCC)CCN(/C=N/C(C)(C)C)C1 | > 100 µM (inactive) | > 100 µM (inactive) | 62.4 µM (inactive) | > 100 µM (inactive) | > 100 µM (inactive) | > 100 µM (inactive) | > 100 µM (inactive) | > 100 µM (inactive) | 44.7 µM (inactive)
18 | O=C1C(c2cnc3ccccc3n2)=C(O)c2ccccc21 | > 100 µM (inactive) | – | – | > 100 µM (inactive) | > 100 µM (inactive) | – | > 100 µM (inactive) | 0.281 µM (active) | > 100 µM (inactive)
19 | COc1ccc2c(c1OC)C1=C(C2=O)c2cc3c(cc2CCN1)OCO3 | 17.9 µM (inactive) | 40.3 µM (inactive) | 42.4 µM (inactive) | 33.1 µM (inactive) | – | 52.5 µM (inactive) | 89.7 µM (inactive) | 24.2 µM (inactive) | 22.6 µM (inactive)
20 | CC(C)CC(=O)NS(=O)(=O)c1ccccc1 | > 100 µM (inactive) | > 100 µM (inactive) | > 100 µM (inactive) | > 100 µM (inactive) | > 100 µM (inactive) | > 100 µM (inactive) | > 100 µM (inactive) | – | > 100 µM (inactive)
21 | COC1C=CC23c4cc5c(cc4C(O)OC2CN(C)C3C1)OCO5 (centres undefined) | 1.29 µM (inactive) | – | – | 1.45 µM (inactive) | – | – | – | 1.4 µM (inactive) | 1.26 µM (inactive)
22 | CC(C)(C)C1=CC(=N/N=c2\scc(-c3ccccc3)n2-c2ccccc2)C=C(C(C)(C)C)C1=O | > 100 µM (inactive) | > 100 µM (inactive) | > 100 µM (inactive) | > 100 µM (inactive) | – | > 100 µM (inactive) | > 100 µM (inactive) | > 100 µM (inactive) | > 100 µM (inactive)
23 | COc1ccc(-c2cc(=O)c3c(OC)cccc3o2)c(OC)c1OC | > 100 µM (inactive) | – | 95.1 µM (inactive) | 82.2 µM (inactive) | – | – | > 100 µM (inactive) | > 100 µM (inactive) | > 100 µM (inactive)
